Test results published in ChEMBL document CHEMBL2440009, “Discovery of GSK2656157: An Optimized PERK Inhibitor Selected for Preclinical Development” (ACS Med Chem Lett, 2013).
pIC50: −log10 of the molar value.

Legend:
[1] = target: T1, Eukaryotic translation initiation factor 2-alpha kinase 3 (Homo sapiens, UniProt Q9NZJ5); assay: Inhibition of thapsigargin-induced autophosphorylation of PERK in human A549 cells preincubated for 1 hr followed by thapsigargin-induction measured after 1 hr by Western blotting analysis; format: cell-based
T1 sequence (Q9NZJ5 whole entry): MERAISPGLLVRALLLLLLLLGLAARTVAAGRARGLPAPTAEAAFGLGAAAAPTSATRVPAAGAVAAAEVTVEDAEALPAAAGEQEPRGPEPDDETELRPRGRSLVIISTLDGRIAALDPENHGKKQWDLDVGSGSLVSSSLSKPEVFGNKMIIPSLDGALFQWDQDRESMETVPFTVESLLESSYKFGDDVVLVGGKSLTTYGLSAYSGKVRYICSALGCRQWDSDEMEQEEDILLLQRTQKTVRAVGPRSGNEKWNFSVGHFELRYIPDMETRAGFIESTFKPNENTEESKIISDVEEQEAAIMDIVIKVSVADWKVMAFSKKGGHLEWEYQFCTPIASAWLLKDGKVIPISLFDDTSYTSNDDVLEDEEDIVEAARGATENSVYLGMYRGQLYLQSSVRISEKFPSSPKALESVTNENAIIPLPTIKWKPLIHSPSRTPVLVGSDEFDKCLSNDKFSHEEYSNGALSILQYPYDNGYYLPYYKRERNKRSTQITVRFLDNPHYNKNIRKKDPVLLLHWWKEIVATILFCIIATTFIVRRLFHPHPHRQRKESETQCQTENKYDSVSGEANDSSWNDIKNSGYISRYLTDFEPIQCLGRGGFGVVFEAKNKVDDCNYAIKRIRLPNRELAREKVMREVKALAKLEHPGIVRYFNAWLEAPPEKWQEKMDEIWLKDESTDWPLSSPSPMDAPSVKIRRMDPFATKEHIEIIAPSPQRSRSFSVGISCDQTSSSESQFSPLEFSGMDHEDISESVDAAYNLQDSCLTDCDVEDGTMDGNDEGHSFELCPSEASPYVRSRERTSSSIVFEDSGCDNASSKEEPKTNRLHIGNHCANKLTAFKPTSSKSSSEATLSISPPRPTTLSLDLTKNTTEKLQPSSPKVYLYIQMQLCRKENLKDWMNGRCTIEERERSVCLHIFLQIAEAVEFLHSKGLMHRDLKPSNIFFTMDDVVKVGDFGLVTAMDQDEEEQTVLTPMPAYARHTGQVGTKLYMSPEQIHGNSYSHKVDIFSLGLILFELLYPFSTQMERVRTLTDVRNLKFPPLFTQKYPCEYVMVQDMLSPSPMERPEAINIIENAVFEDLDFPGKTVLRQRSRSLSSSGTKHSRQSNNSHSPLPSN

[2] = target: T1, Eukaryotic translation initiation factor 2-alpha kinase 3; assay: Inhibition of GST-tagged PERK cytoplasmic domain (536 to 1116) (unknown origin) assessed as biotinylated His6-tagged EIF2alpha phosphorylation preincubated for 30 mins followed by ATP and eIF2alpha addition measured after 1 hr by HTRF assay
[3] = Blood clearance in Sprague-Dawley rat at 2.2 mg/kg, iv by LC-MS/MS analysis; format: ADME, organism-based; design: dose 2.2 mg/kg, route intravenous; details: whole blood
[4] = Oral bioavailability in CD1 mouse at 13.4 mg/kg by LC-MS/MS analysis; format: ADME, organism-based; details: in vivo
[5] = target: Interferon-induced, double-stranded RNA-activated protein kinase (Homo sapiens, UniProt P19525); assay: Inhibition of PKR (unknown origin) assessed as EIF2AK2 phosphorylation
[6] = Half life in CD1 mouse at 2 mg/kg, iv by LC-MS/MS analysis; format: ADME, organism-based; design: dose 2 mg/kg, route intravenous; details: in vivo
[7] = AUC (0 to infinity) in Sprague-Dawley rat at 2.2 mg/kg, iv by LC-MS/MS analysis; format: ADME, organism-based; design: time infinity, dose 2.2 mg/kg, route intravenous; details: plasma
[8] = Volume of distribution at steady state in CD1 mouse at 2 mg/kg, iv by LC-MS/MS analysis; format: ADME, organism-based; design: dose 2 mg/kg, route intravenous; details: in vivo, read-out: Vdss
[9] = AUC (0 to infinity) in beagle dog at 5.2 mg/kg, po by LC-MS/MS analysis; format: ADME, organism-based, Canis lupus familiaris; design: time infinity, dose 5.2 mg/kg, route oral; details: plasma
[10] = AUC (0 to infinity) in beagle dog at 2.9 mg/kg, iv by LC-MS/MS analysis; format: ADME, organism-based, Canis lupus familiaris; design: time infinity, dose 2.9 mg/kg, route intravenous; details: plasma
[11] = target: T2, Cytochrome P450 1A2 (Homo sapiens, UniProt P05177); assay: Inhibition of CYP1A2 in human liver microsomes using phenacetin as substrate after 5 to 60 mins by LC-MS/MS analysis; format: ADME, Microsome
T2 sequence (P05177 whole entry): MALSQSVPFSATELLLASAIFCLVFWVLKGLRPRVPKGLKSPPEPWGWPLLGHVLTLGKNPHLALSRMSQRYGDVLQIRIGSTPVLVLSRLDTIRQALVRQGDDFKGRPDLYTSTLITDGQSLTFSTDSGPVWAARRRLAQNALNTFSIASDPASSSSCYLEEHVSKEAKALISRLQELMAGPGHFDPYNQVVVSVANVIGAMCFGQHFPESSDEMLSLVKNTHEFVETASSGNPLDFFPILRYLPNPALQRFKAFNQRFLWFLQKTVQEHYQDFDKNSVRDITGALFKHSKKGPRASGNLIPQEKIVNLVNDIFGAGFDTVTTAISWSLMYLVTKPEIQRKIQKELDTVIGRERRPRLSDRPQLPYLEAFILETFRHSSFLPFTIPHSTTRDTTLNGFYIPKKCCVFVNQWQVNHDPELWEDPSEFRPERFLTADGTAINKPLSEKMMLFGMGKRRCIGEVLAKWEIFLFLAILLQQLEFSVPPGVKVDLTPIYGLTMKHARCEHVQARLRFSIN

[12] = Oral bioavailability in beagle dog at 5.2 mg/kg by LC-MS/MS analysis; format: ADME, organism-based, Canis lupus familiaris; details: in vivo
[13] = target: Eukaryotic translation initiation factor 2-alpha kinase 1 (Homo sapiens, UniProt Q9BQI3); assay: Inhibition of HRI (unknown origin) assessed as EIF2AK1 phosphorylation
[14] = target: Cytochrome P450 2C9 (Homo sapiens, UniProt P11712); assay: Inhibition of CYP2C9 in human liver microsomes using diclofenac as substrate after 5 to 60 mins by LC-MS/MS analysis; format: ADME, Microsome
[15] = Half life in Sprague-Dawley rat at 2.2 mg/kg, iv by LC-MS/MS analysis; format: ADME, organism-based; design: dose 2.2 mg/kg, route intravenous; details: in vivo
[16] = target: eIF-2-alpha kinase GCN2 (Homo sapiens, UniProt Q9P2K8); assay: Inhibition of GCN2 (unknown origin) assessed as EIF2AK4 phosphorylation
[17] = AUC (0 to infinity) in CD1 mouse at 13.4 mg/kg, po by LC-MS/MS analysis; format: ADME, organism-based; design: time infinity, dose 13.4 mg/kg, route oral; details: plasma
[18] = Half life in beagle dog at 2.9 mg/kg, iv by LC-MS/MS analysis; format: ADME, organism-based, Canis lupus familiaris; design: dose 2.9 mg/kg, route intravenous; details: in vivo
[19] = Blood clearance in beagle dog at 2.9 mg/kg, iv by LC-MS/MS analysis; format: ADME, organism-based, Canis lupus familiaris; design: dose 2.9 mg/kg, route intravenous; details: whole blood
[20] = target: T3, Cytochrome P450 2C8 (Homo sapiens, UniProt P10632); assay: Inhibition of CYP2C8 in human liver microsomes using paclitaxel as substrate after 5 to 60 mins by LC-MS/MS analysis; format: ADME, Microsome
T3 sequence (P10632 whole entry): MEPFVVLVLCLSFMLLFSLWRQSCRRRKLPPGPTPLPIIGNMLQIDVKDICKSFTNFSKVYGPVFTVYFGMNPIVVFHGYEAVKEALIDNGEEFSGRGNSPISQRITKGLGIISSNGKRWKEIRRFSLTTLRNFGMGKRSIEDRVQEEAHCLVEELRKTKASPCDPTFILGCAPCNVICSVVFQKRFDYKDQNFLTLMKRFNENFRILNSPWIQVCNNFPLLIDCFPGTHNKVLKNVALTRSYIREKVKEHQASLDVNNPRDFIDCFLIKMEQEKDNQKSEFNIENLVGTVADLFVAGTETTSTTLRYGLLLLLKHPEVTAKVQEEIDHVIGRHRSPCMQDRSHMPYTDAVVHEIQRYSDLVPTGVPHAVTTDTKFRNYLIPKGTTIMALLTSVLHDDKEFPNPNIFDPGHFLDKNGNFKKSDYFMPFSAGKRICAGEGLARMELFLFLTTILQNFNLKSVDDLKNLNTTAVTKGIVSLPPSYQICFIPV

[21] = target: Cytochrome P450 2C19 (Homo sapiens, UniProt P33261); assay: Inhibition of CYP2C19 in human liver microsomes using mephenytoin as substrate after 5 to 60 mins by LC-MS/MS analysis; format: ADME, Microsome
[22] = AUC (0 to infinity) in Sprague-Dawley rat at 4.3 mg/kg, po by LC-MS/MS analysis; format: ADME, organism-based; design: time infinity, dose 4.3 mg/kg, route oral; details: plasma
[23] = target: Cytochrome P450 2D6 (Homo sapiens, UniProt P10635); assay: Inhibition of CYP2D6 in human liver microsomes using bufuralol as substrate after 5 to 60 mins by LC-MS/MS analysis; format: ADME, Microsome
[24] = Volume of distribution at steady state in Sprague-Dawley rat at 2.2 mg/kg, iv by LC-MS/MS analysis; format: ADME, organism-based; design: dose 2.2 mg/kg, route intravenous; details: in vivo, read-out: Vdss
[25] = AUC (0 to infinity) in CD1 mouse at 2 mg/kg, iv by LC-MS/MS analysis; format: ADME, organism-based; design: time infinity, dose 2 mg/kg, route intravenous; details: plasma
[26] = Oral bioavailability in Sprague-Dawley rat at 4.3 mg/kg by LC-MS/MS analysis; format: ADME, organism-based; details: in vivo
[27] = Blood clearance in CD1 mouse at 2 mg/kg, iv by LC-MS/MS analysis; format: ADME, organism-based; design: dose 2 mg/kg, route intravenous; details: whole blood
[28] = Volume of distribution at steady state in beagle dog at 2.9 mg/kg, iv by LC-MS/MS analysis; format: ADME, organism-based, Canis lupus familiaris; design: dose 2.9 mg/kg, route intravenous; details: in vivo, read-out: Vdss
[29] = target: T4, Cytochrome P450 3A4 (Homo sapiens, UniProt P08684); assay: Inhibition of CYP3A4 in human liver microsomes using midazolam as substrate after 5 to 60 mins by LC-MS/MS analysis; format: ADME, Microsome
[30] = target: T4, Cytochrome P450 3A4; assay: Inhibition of CYP3A4 in human liver microsomes using nifedipine as substrate after 5 to 60 mins by LC-MS/MS analysis; format: ADME, Microsome

Chain of Interferon-induced, double-stranded RNA-activated protein kinase (P19525 whole entry): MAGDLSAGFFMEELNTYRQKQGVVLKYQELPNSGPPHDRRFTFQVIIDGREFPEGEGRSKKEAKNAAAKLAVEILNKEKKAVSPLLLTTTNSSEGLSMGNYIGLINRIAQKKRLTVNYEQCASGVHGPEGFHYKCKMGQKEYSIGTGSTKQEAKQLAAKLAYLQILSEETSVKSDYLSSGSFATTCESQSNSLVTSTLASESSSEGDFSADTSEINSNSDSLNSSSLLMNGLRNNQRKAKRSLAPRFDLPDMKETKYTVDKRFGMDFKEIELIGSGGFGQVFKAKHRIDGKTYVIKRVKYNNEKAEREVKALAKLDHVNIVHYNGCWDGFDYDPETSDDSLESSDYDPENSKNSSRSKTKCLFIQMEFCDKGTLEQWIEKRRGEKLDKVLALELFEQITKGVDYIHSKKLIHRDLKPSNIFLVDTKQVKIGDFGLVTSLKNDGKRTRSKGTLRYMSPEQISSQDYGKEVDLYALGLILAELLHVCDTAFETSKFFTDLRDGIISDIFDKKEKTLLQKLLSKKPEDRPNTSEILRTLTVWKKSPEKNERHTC
Chain of Cytochrome P450 2D6 (P10635 whole entry): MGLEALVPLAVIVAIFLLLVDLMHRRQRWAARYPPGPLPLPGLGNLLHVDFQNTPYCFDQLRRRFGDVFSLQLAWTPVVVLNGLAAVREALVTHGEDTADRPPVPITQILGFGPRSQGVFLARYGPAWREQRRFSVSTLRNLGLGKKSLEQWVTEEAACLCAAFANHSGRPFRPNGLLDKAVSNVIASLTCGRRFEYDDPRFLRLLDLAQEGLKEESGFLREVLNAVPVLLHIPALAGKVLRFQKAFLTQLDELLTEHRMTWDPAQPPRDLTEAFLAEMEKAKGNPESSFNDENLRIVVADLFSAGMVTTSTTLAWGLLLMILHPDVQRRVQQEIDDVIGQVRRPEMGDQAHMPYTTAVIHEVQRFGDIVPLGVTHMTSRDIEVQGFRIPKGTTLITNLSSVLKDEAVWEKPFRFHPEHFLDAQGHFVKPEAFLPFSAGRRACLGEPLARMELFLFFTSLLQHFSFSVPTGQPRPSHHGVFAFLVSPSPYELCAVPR
Chain of Eukaryotic translation initiation factor 2-alpha kinase 1 (Q9BQI3 whole entry): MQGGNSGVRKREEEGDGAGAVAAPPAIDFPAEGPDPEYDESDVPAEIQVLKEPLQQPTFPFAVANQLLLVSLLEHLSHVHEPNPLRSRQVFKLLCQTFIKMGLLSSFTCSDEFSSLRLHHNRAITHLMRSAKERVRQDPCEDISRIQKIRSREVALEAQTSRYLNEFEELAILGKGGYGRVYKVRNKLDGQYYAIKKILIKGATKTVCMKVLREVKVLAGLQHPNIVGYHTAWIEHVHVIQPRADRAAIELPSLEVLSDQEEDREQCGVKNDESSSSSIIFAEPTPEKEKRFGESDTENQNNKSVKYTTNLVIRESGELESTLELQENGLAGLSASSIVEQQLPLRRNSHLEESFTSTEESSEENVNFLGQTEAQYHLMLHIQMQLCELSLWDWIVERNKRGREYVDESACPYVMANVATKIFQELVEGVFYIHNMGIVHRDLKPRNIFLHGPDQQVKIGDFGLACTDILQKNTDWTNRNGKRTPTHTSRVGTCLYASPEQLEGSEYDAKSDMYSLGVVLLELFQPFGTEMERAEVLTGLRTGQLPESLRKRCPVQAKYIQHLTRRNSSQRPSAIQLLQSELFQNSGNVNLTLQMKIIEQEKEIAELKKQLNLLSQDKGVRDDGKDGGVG
Chain of Cytochrome P450 2C9 (P11712 whole entry): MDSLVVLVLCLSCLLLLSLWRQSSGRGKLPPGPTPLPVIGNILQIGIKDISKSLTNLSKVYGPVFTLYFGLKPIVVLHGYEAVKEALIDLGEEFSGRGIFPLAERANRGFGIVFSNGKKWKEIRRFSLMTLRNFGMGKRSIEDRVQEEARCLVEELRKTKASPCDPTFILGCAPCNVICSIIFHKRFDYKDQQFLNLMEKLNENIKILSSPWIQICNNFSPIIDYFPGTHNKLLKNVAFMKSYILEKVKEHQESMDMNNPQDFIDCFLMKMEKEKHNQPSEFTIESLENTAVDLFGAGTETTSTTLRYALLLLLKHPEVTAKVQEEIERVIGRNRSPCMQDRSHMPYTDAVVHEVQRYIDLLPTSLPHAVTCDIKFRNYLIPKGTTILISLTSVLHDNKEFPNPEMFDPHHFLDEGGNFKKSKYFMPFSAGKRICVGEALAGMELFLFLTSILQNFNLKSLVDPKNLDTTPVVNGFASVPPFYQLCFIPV
Chain of Cytochrome P450 2C19 (P33261 whole entry): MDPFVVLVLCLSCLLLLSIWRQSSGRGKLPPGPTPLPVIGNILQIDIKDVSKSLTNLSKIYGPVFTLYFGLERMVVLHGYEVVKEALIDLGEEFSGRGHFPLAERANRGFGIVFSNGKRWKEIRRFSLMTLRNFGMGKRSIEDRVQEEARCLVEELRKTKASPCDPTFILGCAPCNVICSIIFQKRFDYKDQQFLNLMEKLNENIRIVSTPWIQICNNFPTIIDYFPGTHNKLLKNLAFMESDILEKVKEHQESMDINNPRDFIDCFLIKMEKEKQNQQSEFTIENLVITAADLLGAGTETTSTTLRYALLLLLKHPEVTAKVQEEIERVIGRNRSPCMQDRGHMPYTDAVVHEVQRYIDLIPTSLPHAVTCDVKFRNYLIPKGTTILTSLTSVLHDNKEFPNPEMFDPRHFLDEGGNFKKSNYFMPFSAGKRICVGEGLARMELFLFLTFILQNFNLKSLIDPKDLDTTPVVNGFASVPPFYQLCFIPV
T4 sequence (P08684 whole entry): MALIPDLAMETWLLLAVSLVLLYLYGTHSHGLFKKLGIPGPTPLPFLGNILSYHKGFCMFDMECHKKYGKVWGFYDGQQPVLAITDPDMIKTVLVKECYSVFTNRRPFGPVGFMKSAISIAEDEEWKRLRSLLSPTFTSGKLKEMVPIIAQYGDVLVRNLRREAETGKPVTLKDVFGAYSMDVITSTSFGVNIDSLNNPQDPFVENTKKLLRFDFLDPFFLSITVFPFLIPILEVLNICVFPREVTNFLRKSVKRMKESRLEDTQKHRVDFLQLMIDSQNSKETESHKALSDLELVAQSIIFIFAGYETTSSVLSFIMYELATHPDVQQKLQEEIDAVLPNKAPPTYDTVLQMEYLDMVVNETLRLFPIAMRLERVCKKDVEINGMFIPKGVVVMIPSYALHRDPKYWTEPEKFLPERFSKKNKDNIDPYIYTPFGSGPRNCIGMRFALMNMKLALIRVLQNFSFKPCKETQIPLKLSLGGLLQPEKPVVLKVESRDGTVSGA
Chain of eIF-2-alpha kinase GCN2 (Q9P2K8 whole entry): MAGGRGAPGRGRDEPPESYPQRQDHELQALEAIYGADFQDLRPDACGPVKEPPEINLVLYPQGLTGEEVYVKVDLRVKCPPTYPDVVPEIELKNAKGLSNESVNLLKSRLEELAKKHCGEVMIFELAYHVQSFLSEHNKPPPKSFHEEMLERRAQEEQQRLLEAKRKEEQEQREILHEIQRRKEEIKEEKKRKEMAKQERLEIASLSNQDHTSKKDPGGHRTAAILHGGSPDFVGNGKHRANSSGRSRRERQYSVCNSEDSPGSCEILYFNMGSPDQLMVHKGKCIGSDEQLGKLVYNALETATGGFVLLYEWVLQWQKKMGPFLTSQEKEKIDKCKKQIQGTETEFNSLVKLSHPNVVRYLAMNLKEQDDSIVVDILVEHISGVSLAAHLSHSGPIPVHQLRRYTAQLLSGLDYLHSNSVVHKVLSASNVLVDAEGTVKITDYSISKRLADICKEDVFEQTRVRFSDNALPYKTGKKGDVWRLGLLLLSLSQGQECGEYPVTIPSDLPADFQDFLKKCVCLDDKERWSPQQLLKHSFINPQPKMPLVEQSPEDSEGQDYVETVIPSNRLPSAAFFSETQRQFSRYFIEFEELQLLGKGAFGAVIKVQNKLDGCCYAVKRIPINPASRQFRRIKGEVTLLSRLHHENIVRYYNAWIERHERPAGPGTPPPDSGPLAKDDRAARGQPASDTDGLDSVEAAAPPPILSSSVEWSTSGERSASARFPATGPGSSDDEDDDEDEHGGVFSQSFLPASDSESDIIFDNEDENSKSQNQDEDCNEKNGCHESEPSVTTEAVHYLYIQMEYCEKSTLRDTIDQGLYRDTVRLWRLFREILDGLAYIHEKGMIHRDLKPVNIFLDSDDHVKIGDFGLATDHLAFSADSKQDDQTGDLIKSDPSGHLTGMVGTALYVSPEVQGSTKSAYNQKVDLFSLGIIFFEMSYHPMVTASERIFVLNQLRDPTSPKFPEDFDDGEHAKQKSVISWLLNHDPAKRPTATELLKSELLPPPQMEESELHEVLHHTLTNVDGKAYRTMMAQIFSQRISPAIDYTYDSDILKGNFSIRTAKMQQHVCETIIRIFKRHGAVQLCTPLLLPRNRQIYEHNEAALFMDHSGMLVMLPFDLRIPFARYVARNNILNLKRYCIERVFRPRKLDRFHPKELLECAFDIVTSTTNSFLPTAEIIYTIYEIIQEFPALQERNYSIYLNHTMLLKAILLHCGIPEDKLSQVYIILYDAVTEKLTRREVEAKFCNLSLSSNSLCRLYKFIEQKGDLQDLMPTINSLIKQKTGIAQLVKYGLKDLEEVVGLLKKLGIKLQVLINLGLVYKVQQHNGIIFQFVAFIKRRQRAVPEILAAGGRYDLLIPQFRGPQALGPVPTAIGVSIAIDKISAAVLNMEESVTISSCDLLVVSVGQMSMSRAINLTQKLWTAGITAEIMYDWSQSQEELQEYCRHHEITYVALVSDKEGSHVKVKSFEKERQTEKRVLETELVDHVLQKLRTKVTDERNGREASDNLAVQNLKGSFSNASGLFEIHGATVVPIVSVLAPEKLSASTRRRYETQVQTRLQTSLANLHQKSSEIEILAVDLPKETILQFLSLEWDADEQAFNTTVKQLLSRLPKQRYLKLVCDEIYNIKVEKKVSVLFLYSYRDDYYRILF

Cc1cc(C)n(CC(=O)N2CCc3cc(-c4cn(C)c5ncnc(N)c45)ccc32)n1
pIC50 [1]: 7.00
pIC50 [2]: 8.72
clearance [3]: 2.8 mL/min/kg

Cc1ccnn1CC(=O)N1CCc2cc(-c3cn(C)c4ncnc(N)c34)ccc21
pIC50 [2]: 7.78

Cn1cc(-c2ccc3c(c2)CCN3C(=O)Cc2ccccn2)c2c(N)ncnc21
pIC50 [2]: 7.72

Cc1cccc(CC(=O)N2CCc3c2ccc(-c2cn(C)c4ncnc(N)c24)c3F)n1
bioavailability [4]: 52%
pIC50 [5]: 6.04
half-life [6]: 1.25 h
AUC(0-inf) [7]: 3920 ng·h/mL
Vd [8]: 0.72 L/kg
pIC50 [1]: 7.52
AUC(0-inf) [9]: 6210 ng·h/mL
AUC(0-inf) [10]: 3130 ng·h/mL
pIC50 [11]: < 4.60
bioavailability [12]: 100%
pIC50 [13]: 6.34
pIC50 [14]: 4.61
half-life [15]: 1.4 h
pIC50 [16]: 5.47
AUC(0-inf) [17]: 13400 ng·h/mL
half-life [18]: 3.1 h
clearance [19]: 15.5 mL/min/kg
pIC50 [20]: < 4.60
pIC50 [21]: < 4.60
AUC(0-inf) [22]: 8020 ng·h/mL
pIC50 [2]: 9.10
pIC50 [23]: < 4.60
Vd [24]: 0.6 L/kg
clearance [3]: 9.5 mL/min/kg
AUC(0-inf) [25]: 3270 ng·h/mL
bioavailability [26]: 100%
clearance [27]: 10.5 mL/min/kg
Vd [28]: 2.8 L/kg

Cn1cc(-c2ccc3c(c2)CCN3C(=O)Cc2cccnc2)c2c(N)ncnc21
pIC50 [2]: 7.63

Cc1cc(C)n(CC(=O)N2CCc3c2ccc(-c2cn(C)c4ncnc(N)c24)c3F)n1
pIC50 [5]: 7.00
pIC50 [1]: 7.52
pIC50 [11]: < 4.60
pIC50 [13]: 7.21
pIC50 [14]: < 4.60
pIC50 [29]: < 4.60
pIC50 [30]: 4.69
pIC50 [20]: < 4.60
pIC50 [21]: < 4.60
pIC50 [2]: 8.57
pIC50 [23]: < 4.60
clearance [3]: 1.9 mL/min/kg
